According to patent US10087165B2, “Fluoroquinolones and use thereof to treat bacterial infections” (UNIVERSITÉ PIERRE ET MARIE CURIE—PARIS 6 (UPMC), priority 2014, dated 2018):
In brackets after ≈: the same amount, converted by molar mass. Where two headings read alike, the source gives them in different places.

Columns and labels:
M. tuberculosis H37Rv = assay: microbe, parasite or virus in culture; format: cell-based; settings: for MIC: Mycobacterium tuberculosis
[1] = system: M. tuberculosis H37Rv strain; assay: Minimal effective dosage in the murine TB model; format: in vivo, Balb/C/J female mice; set-up: Mice weight: unit not given here; settings: for Mice weight / Spleen weight / Survival: No. death: Gavage; for Survival: No. death: 10 mice
Procedure: Four-week-old Balb/C/J female mice were infected intravenously with 10^6 CFU of M. tuberculosis H37Rv strain. On the day following the infection (D1), 10 mice were sacrificed to determine the exact baseline values of spleen weight and CFU counts in the lungs. The remaining mice were allocated to the following treatment groups: an untreated negative control group for survival monitoring, a positive control group treated for 1 month with isoniazid (INH) 25 mg/kg/d, […] test groups were treated with Quin18 and Quin19 at increasing dosages (25 mg/kg/d; 50 mg/kg/d; 100 mg/kg/d; 150 mg/kg/d) given by oral gavage, and two additional test groups were treated intravenously with Quin18 25 mg/kg/d and 100 mg/kg/d. All the groups contained 10 mice and were treated from D1 to D28, 5 days a week. The parameters used for assessing the severity of infection and the effectiveness of treatments were survival rate, spleen weight, gross lung lesions and CFU counts in the lungs.
The minimal effective dosage was defined as the minimal dosage able to prevent mortality of the mice, spleen enlargement and the occurrence of gross lung lesions. CFU counts were considered to be a more precise way of determining the dose-ranging efficacy of Quin18 and Quin19.
Survival rates between groups were plotted on a Kaplan-Meier curve and compared using the log-rank test.

[2] = Acute toxicity in healthy female CD-1 mice after a single oral treatment; format: in vivo
Procedure: The aim of this study was to evaluate the acute toxicity of two new compounds (Quin 18 and Quin 19) in healthy female CD-1 after a single oral treatment at D0.
Toxicity of treatment was evaluated by monitoring of animals (general signs of pharmacologic and toxicity effects, morbidity, mortality and evident signs of toxicity, as well as twice-weekly monitoring for clinical signs and body weight) until the end of the experiment (D14). At the end of the experiment, animals were sacrificed and macroscopic autopsy was performed.
Mice of each group were administered by per os (PO) injection at 10 ml/kg according to the standard operating procedure No. TEC-078. The recommended volume for per os (PO) administration in mice is 10 ml/kg.
Morbidity, mortality and evident signs of toxicity of mice were considered daily from D0 until the end of the experiment (D14 or D15).
Monitoring of mice for detailed behavioral and clinical observations was performed twice a week from D0 until the end of the experiment (D14 or D15) according to the standard operating procedures No. TEC-192.
Body weight of mice was monitored at D1, D2 and then twice a week until the end of the experiment (D14 or D15) according to the standard operating procedures No. TEC-108. Weight loss was assessed against the starting weight of each mouse at D0.
During the course of the experiment, animals were sacrificed if any of the following occurs: • Signs of suffering (cachexia, weakening, difficulty to move or to eat), • Compound toxicity (hunching, convulsions), • 25% body weight loss on any day. Sacrifice of Animals
At D14 or D15, animals were be sacrificed by CO2 inhalation and a macroscopic autopsy was performed.

[3] = format: physicochemical
Procedure: A solubility assay was performed on both Quin 18 and Quin 19 in appropriated vehicles for per os injection into mice to obtain a fine suspension at maximal concentration (MC) of each compound. The solubility of each compound in each vehicle was evaluated by observation of potential precipitate.

[4] = biological target: M. tuberculosis DNA gyrase (Mycobacterium tuberculosis, UniProt P9WG45+P9WG47); assay: biochemical
Chain of M. tuberculosis DNA gyrase (P9WG47 whole entry): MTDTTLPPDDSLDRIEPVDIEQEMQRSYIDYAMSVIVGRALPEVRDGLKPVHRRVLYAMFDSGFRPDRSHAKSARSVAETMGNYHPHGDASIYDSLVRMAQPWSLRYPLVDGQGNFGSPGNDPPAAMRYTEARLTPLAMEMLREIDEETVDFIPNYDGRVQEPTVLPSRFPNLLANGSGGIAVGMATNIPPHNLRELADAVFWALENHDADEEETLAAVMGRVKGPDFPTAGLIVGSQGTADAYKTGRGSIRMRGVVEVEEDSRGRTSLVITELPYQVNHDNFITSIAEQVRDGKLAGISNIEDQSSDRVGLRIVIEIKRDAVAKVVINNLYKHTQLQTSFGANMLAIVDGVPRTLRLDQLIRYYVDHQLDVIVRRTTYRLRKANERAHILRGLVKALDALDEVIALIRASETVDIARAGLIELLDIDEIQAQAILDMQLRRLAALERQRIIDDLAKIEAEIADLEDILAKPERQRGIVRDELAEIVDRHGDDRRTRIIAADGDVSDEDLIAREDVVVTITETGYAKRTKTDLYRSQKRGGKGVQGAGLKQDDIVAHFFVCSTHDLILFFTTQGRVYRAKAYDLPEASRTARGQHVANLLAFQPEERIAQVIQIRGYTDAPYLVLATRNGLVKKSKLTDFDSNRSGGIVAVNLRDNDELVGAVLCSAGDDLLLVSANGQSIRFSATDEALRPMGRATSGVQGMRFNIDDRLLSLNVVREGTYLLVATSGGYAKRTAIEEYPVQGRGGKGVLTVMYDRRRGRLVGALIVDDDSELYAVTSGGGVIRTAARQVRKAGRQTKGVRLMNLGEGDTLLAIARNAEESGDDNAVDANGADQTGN
Chain of M. tuberculosis DNA gyrase (P9WG45 whole entry): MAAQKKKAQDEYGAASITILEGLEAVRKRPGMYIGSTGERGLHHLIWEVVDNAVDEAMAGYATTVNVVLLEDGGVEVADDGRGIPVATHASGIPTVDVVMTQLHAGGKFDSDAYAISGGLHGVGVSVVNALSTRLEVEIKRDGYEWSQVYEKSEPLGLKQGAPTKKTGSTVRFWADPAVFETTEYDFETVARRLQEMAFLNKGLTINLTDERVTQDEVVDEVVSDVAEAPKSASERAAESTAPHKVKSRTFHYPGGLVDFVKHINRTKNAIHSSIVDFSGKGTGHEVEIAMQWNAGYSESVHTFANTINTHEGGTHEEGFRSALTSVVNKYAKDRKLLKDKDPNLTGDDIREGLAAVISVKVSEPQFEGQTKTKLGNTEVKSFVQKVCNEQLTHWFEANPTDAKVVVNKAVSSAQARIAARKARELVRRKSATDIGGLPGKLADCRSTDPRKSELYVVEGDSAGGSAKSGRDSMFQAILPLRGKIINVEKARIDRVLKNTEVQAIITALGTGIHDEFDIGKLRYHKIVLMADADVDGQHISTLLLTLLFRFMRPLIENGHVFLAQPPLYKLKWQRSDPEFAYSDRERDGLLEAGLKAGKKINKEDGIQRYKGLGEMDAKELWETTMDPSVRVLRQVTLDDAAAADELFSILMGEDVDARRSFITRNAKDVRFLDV

CCCCCCCCCCN1CCN(c2c(F)cc3c(=O)c(C(=O)O)cn(C4CC4)c3c2OC)CC1 [Quin 19, 1-cyclopropyl-7-(4-decylpiperazin-1-yl)-6-fluoro-8-methoxy-4-oxo-1,4-dihydroquinoline-3-carboxylic acid]
antibacterial activity against wild-type M. tuberculosis strain (in words) (M. tuberculosis H37Rv; H37Rv): high antibacterial activity
MIC (M. tuberculosis H37Rv; H37RV, Table 3, read-out: MIC M. tuberculosis H37Rv): < 0.12 µM
MIC (M. tuberculosis H37Rv; H37Rv, Table 2, read-out: MIC (M. tuberculosis) WT): 0.25 µM (≈ 0.125 µg/mL)
Mice weight ([1]; 25 mg/kg/j): 19.3 ± 2.6
Spleen weight ([1]; 25 mg/kg/j): 332 ± 141.1 mg
Survival: No. death ([1]; 25 mg/kg/j, D1 to D28, 5 days a week): 1
Mice weight ([1]; 50 mg/kg/j): 18 ± 3.4
Spleen weight ([1]; 50 mg/kg/j): 305.6 ± 181.5 mg
Survival: No. death ([1]; 50 mg/kg/j): 2
Mice weight ([1]; 100 mg/kg/j): 20.2 ± 1.3
Spleen weight ([1]; 100 mg/kg/j): 253 ± 127.2 mg
Survival: No. death ([1]; 100 mg/kg/j): 0
Mice weight ([1]; 150 mg/kg/j): 20.7 ± 0.8
Spleen weight ([1]; 150 mg/kg/j): 222 ± 106.2 mg
Survival: No. death ([1]; 150 mg/kg/j): 0
Efficacy in a mouse model of tuberculosis (in words) ([1]; given orally): outstanding efficacy
Survival compared with untreated group (in words) ([1]; whatever the dosage (25, 50, 100 and 150 mg/kg/d) and the administration route): statistically superior to untreated group
Loss of body weight (in words) ([2]; Group B1: 100 mg/kg PO Q1Dx1): did not exhibited any loss of body weight
Tolerance (in words) ([2]; Group B1: 100 mg/kg PO Q1Dx1, corn oil, with sonication): well tolerated
Mean body weight (MBW) ([2]; Group B1: 100 mg/kg PO Q1Dx1, with sonication, D1): 29.73 ± 0.83 g
Mean body weight (MBW) ([2]; Group B1: 100 mg/kg PO Q1Dx1, with sonication, D2): 29.9 ± 0.2 g
Mean body weight (MBW) ([2]; Group B1: 100 mg/kg PO Q1Dx1, with sonication, D3): 30.23 ± 0.4 g
Mean body weight (MBW) ([2]; Group B1: 100 mg/kg PO Q1Dx1, with sonication, D4): 30.5 ± 0.98 g
Mean body weight (MBW) ([2]; Group B1: 100 mg/kg PO Q1Dx1, with sonication, D7): 31.2 ± 0.1 g
Mean body weight (MBW) ([2]; Group B1: 100 mg/kg PO Q1Dx1, with sonication, D11): 32.17 ± 1.36 g
Mean body weight (MBW) ([2]; Group B1: 100 mg/kg PO Q1Dx1, with sonication, D14): 31.4 ± 0.44 g
Macroscopic autopsy: Observations ([2]; Group B1: 100 mg/kg PO Q1Dx1, *one mouse had air bubble in the caecum): NTR*
Mean body weight (MBW) ([2]; Group B1: corn oil, 10 mg/ml with sonication, 100 mg/kg PO Q1Dx1, D0, 100 mg/kg): 31.67 ± 2.25 g
Loss of body weight (in words) ([2]; Group B2: 200 mg/kg PO Q1Dx1): did not exhibited any loss of body weight
Tolerance (in words) ([2]; Group B2: 200 mg/kg PO Q1Dx1, corn oil, with sonication): well tolerated
Mean body weight (MBW) ([2]; Group B2: 200 mg/kg PO Q1Dx1, with sonication, D1): 30.97 ± 0.4 g
Mean body weight (MBW) ([2]; Group B2: 200 mg/kg PO Q1Dx1, with sonication, D2): 30.93 ± 0.25 g
Mean body weight (MBW) ([2]; Group B2: 200 mg/kg PO Q1Dx1, with sonication, D3): 30.3 ± 0.85 g
Mean body weight (MBW) ([2]; Group B2: 200 mg/kg PO Q1Dx1, with sonication, D7): 31.6 ± 1.97 g
Mean body weight (MBW) ([2]; Group B2: 200 mg/kg PO Q1Dx1, with sonication, D10): 32.1 ± 3.2 g
Mean body weight (MBW) ([2]; Group B2: 200 mg/kg PO Q1Dx1, with sonication, D14): 31.9 ± 1.15 g
Macroscopic autopsy: Observations ([2]; Group B2: 200 mg/kg PO Q1Dx1, sacrifice at end of study): NTR
Mean body weight (MBW) ([2]; Group B2: corn oil, 20 mg/ml with sonication, 200 mg/kg PO Q1Dx1, D0, 200 mg/kg): 30.67 ± 0.21 g
Loss of body weight (in words) ([2]; Group B3: 200 mg/kg PO Q1Dx1): did not exhibited any loss of body weight
Tolerance (in words) ([2]; Group B3: 200 mg/kg PO Q1Dx1, corn oil, without sonication): well tolerated
Mean body weight (MBW) ([2]; Group B3: 200 mg/kg PO Q1Dx1, without sonication, D1): 32.73 ± 1.46 g
Mean body weight (MBW) ([2]; Group B3: 200 mg/kg PO Q1Dx1, without sonication, D2): 32.5 ± 0.62 g
Mean body weight (MBW) ([2]; Group B3: 200 mg/kg PO Q1Dx1, without sonication, D4): 31.73 ± 0.9 g
Mean body weight (MBW) ([2]; Group B3: 200 mg/kg PO Q1Dx1, without sonication, D7): 32.2 ± 0.5 g
Mean body weight (MBW) ([2]; Group B3: 200 mg/kg PO Q1Dx1, without sonication, D11): 34.1 ± 1.51 g
Mean body weight (MBW) ([2]; Group B3: 200 mg/kg PO Q1Dx1, without sonication, D15): 35.43 ± 1.99 g
Macroscopic autopsy: Observations ([2]; Group B3: 200 mg/kg PO Q1Dx1, sacrifice at end of study): NTR
Mean body weight (MBW) ([2]; Group B3: corn oil, 20 mg/ml without sonication, 200 mg/kg PO Q1Dx1, D0, 200 mg/kg): 33.6 ± 2.11 g
Loss of body weight (in words) ([2]; Group B4: 400 mg/kg PO 2Q1Dx1): did not exhibited any loss of body weight
Tolerance (in words) ([2]; Group B4: 400 mg/kg PO 2Q1Dx1, corn oil, without sonication): well tolerated
Mean body weight (MBW) ([2]; Group B4: 400 mg/kg PO 2Q1Dx1, without sonication, D1): 30.47 ± 2.2 g
Mean body weight (MBW) ([2]; Group B4: 400 mg/kg PO 2Q1Dx1, without sonication, D2): 30.47 ± 1.3 g
Mean body weight (MBW) ([2]; Group B4: 400 mg/kg PO 2Q1Dx1, without sonication, D5): 31.03 ± 1.55 g
Mean body weight (MBW) ([2]; Group B4: 400 mg/kg PO 2Q1Dx1, without sonication, D9): 31.77 ± 2.32 g
Mean body weight (MBW) ([2]; Group B4: 400 mg/kg PO 2Q1Dx1, without sonication, D13): 31.7 ± 1.18 g
Mean body weight (MBW) ([2]; Group B4: 400 mg/kg PO 2Q1Dx1, without sonication, D14): 32.53 ± 1 g
Macroscopic autopsy: Observations ([2]; Group B4: 400 mg/kg PO 2Q1Dx1, sacrifice at end of study): NTR
Mean body weight (MBW) ([2]; Group B4: corn oil, 20 mg/ml without sonication, 400 mg/kg PO 2Q1Dx1 (2 hours between the 2 injections), D0, 400 mg/kg): 31.03 ± 1.86 g
Autopsy, macroscopic observations (in words) ([2]; all treated groups): No particular sign was observed
Dose up to which well tolerated (maximal solubility) ([2]; in corn oil, PO, female mice): up to 400 mg/kg
Signs of toxicity at the dose levels tested (in words) ([2]; mice): no signs of toxicity
Excipient allowing the best solubilisation [3]: corn oil
IC50 [4]: 150 µM
